Data set [1] is described as follows: Solubility of amine monomers of Formula I in water. Format: physicochemical. The text has this: The insolubility point was reached when a distinct two separate layers was observed.
For data set [2] the following is noted: Material Safety Data Sheet from Arkema Inc for Norsocryl; cited from earlier work.
Where [3] appears, read: 0.1 g amine monomer/100 g deionised water.
The mark [4] stands for this setting: 0.2 g amine monomer/100 g deionised water.
Where [5] appears, read: 0.3 g amine monomer/100 g deionised water.
Where [6] appears, read: 0.4 g amine monomer/100 g deionised water.
Setting [7] is: 0.5 g amine monomer/100 g deionised water.
Setting [8] is: 1.0 g amine monomer/100 g deionised water.
The mark [9] stands for this setting: 1.5 g amine monomer/100 g deionised water.
The mark [10] stands for this setting: 2.0 g amine monomer/100 g deionised water.
Where [11] appears, read: 2.5 g amine monomer/100 g deionised water.
Where [12] appears, read: 5.0 g amine monomer/100 g deionised water.
[13] abbreviates: 7.5 g amine monomer/100 g deionised water.
Where [14] appears, read: 10.0 g amine monomer/100 g deionised water.
Setting [15] is: 12.5 g amine monomer/100 g deionised water.
[16] abbreviates: 15.0 g amine monomer/100 g deionised water.

≈ marks a conversion by molar mass, not a printed value.

As for `C=C(C)C(=O)OCCNC(C)(C)C` [TBAEMA, tertiary-butylaminoethyl methacrylate], the solubility in water entry in data set [1] (setting [3]), in data set [1] (setting [4]), in data set [1] (setting [5]), in data set [1] (setting [6]), in data set [1] (setting [7]) and in data set [1] (setting [8]) was “soluble” each time. Also, the solubility in water result in data set [1] (setting [9]) is “soluble”; in data set [1] (setting [10]), “insoluble”; in data set [1] (setting [11]), “insoluble”; in data set [1] (setting [12]), “insoluble”; in data set [1] (setting [13]), “insoluble”; in data set [1] (setting [14]) it was “insoluble”. In addition, the solubility in water result in data set [1] (setting [15]) is “insoluble”; in data set [1] (setting [16]), “insoluble”; in data set [1] (estimated from Table 2), “less than 2 g/100 g water”. For the same compound, the “solubility in water, published literature value” in data set [2] was 18 mg/mL (≈ 97.2 mM).
Consider `C=C(C)C(=O)OCC[N+](C)(CC)CC.COS(=O)(=O)[O-]` [DEAEMA Quat DMS, Diethylaminoethyl methacrylate dimethyl sulphate quaternary ammonium form], for which, in data set [1] (quaternized monomer), the solubility in water result is “completely water soluble”.
With `C=C(C)C(=O)OCCN(CC)CC` [DEAEMA, diethylaminoethyl methacrylate], the solubility in water result in data set [1] (setting [3]) is “soluble”; in data set [1] (setting [4]), “insoluble”; in data set [1] (setting [5]), “insoluble”; in data set [1] (setting [6]), “insoluble”; in data set [1] (setting [7]), “insoluble”; in data set [1] (setting [8]), “insoluble”. Moreover, the solubility in water result in data set [1] (setting [9]), in data set [1] (setting [10]), in data set [1] (setting [11]), in data set [1] (setting [12]), in data set [1] (setting [13]) and in data set [1] (setting [14]) was “insoluble” each time. The solubility in water entry in data set [1] (setting [15]) and in data set [1] (setting [16]) was “insoluble” each time.
In the case of `C=C(C)C(=O)OCCN(C(C)C)C(C)C` [DPAEMA, Diisopropylaminoethyl methacrylate], the solubility in water result in data set [1] (setting [3]) is recorded as “soluble”; in data set [1] (setting [4]) it was “insoluble”; in data set [1] (setting [5]) it was “insoluble”; in data set [1] (setting [6]), “insoluble”; in data set [1] (setting [7]) it was “insoluble”; in data set [1] (setting [8]), “insoluble”. Further, the solubility in water entry in data set [1] (setting [9]), in data set [1] (setting [10]), in data set [1] (setting [11]), in data set [1] (setting [12]), in data set [1] (setting [13]) and in data set [1] (setting [14]) was “insoluble” each time. Besides, the solubility in water result in data set [1] (setting [15]) and in data set [1] (setting [16]) was “insoluble” in each case.

Source of the values: US11717471B2, “Hydrogel microcapsules” (ISP Investments LLC, priority 2010, dated 2023).
